Results taken from patent US9279010B2, “Treatment of inflammatory bowel diseases with mammal beta defensins” (Defensin Therapeutics ApS, priority 2008, dated 2016).
Marks after values point to notes of the source that are not given here.

Experiments:
[1] = test system: Dextran Sodium Sulphate (DSS)-induced colitis; test: 10-Day DSS-induced colitis model in the mouse (Example 2): Disease Activity Index and colon histology score; format: in vivo, mouse (male C57BL/6); set-up: key to DAI score: DAI score from stool, bleeding, weight loss; daily maximum 12; settings: for DAI score: 1 mg/kg p.o. daily
Excerpt: The aim of the following study was to determine the anti-inflammatory activity of human beta defensin 2 in an acute (10-days) model of inflammatory bowel disease (colitis) induced by oral dextran sodium sulphate (DSS) administration in the mouse.
Animals were divided into 5 experimental groups.
Colitis was induced in mice by supplementing their drinking water with DSS 2% for 7 days.
On Day 1 all mice were weighed and marked according to their experimental groups. The drinking bottle of each cage was filled with the DSS solution, making sure all bottle lids were mounted properly and that none were congested.
On Day 3 any remaining solution in the bottles was emptied and refilled with fresh DSS solution. This procedure was repeated again on Day 5.
On Day 8 any remaining solution was discarded and replaced with autoclaved water.
Animals were sacrificed 2 days later on Day 10.
Daily clinical assessment of DSS-treated animals was carried out, with the calculation of a validated clinical Disease Activity Index (DAI) ranging from 0 to 4 according to the following parameters: stool consistency, presence or absence of rectal bleeding and weight loss:
Bodyweight loss was calculated as the percent difference between the original bodyweight (Day 1) and the actual bodyweight on each experimental day (2-10).
The appearance of diarrhoea is defined as mucus/faecal material adherent to anal fur. Rectal bleeding is defined as diarrhoea containing visible blood/mucus or gross rectal bleeding. The maximum score of the DAI each day is 12.
Their colons were removed and their length and weight measured after exclusion of the caecum.
Two sections (proximal and distal) of colon were taken from each animal and preserved in neutral buffered formalin for subsequent histological analysis (haematoxylin and eosin staining) according to the following scoring system:
Two sections (proximal and distal) of colon were taken from each animal, processed for histological analysis (haematoxylin and eosin staining) and scored by a blind observer according to the histological scoring system described above.
The statistical significance of the results was evaluated using the statistics program Graphpad Instat 3. The difference between groups for disease activity index and histological score was evaluated by Kruskal-Wallis test for unpaired data plus post-test Dunn to allow for multiple comparisons. A value of p<0.05 was taken as significant.

[2] = test system: TNF-α; test: Determination of TNF-alpha concentration in colonic tissue samples by ELISA (Example 2); format: in vivo, mouse (male C57BL/6); settings: 1 mg/kg p.o. daily for 10 days
Description: An additional sample of colon was obtained from each animal and homogenised in PBS (100 mg tissue/ml PBS) containing 1% bovine serum albumin (BSA) and a protease inhibitor cocktail (1 ml/20 g tissue). The homogenate was then be centrifuged at 1400 rpm for 10 min and the supernatant stored at −20° C. for subsequent determination of TNF-α concentration by specific enzyme immunoassay (ELISA).
[…]

[3] = test system: Dextran Sodium Sulphate (DSS)-induced colitis; test: 10-Day DSS-induced colitis model in the mouse (Example 3): Disease Activity Index and colon histology score; format: in vivo
Description: Example 3 was carried out essentially as described in Example 2. The differences are indicated below.
Animals were divided into 9 experimental groups. […]
Methylprednisolone was given orally at a dose of 1 mg/kg (group H) and 10 mg/kg (group J) in a dosing volume of 5 ml/kg body weight, once daily for 10 consecutive days.
Two sections (proximal and distal) of colon were taken from each animal, processed for histological analysis (haematoxylin and eosin staining), and scored by a blind observer according to the scoring system described above.
The statistical significance of the results was evaluated using the statistics program Graphpad Instat 3. The difference between groups for disease activity index and histological score was evaluated by Kruskal-Wallis test for unpaired data+post-test of Dunn for multiple comparisons. A value of p<0.05 was taken as significant. In the tables above, significant differences versus the corresponding control (vehicle) group are denoted as: *p<0.05, **p<0.01, ***p<0.001.

[4] = test system: human peripheral blood mononuclear cells (PBMC); test: IL-10 production from LPS-treated human PBMC, CBA (Example 5); format: cell-based; settings: for IL-10 / IL-10 % of control: Table 22
Description: (§1) Peripheral blood was drawn from healthy volunteers (with approval from the relevant ethical committee in Denmark). Heparinized blood was diluted 1/1 v/v with RPMI and were subjected to Ficoll density centrifugation within 2 h of drawing. Plasma was collected from the top from individual donors and was kept on ice until it was used at 2% in the culture medium (autologous culture medium). Isolated PBMC were resuspended in autologous culture medium and seeded in 96-well culture plates with 255.000 cells per well in a total of 200 μl. […] The concentrations used for stimulation were optimized on 3 different donors in initial experiments, for LPS two different concentrations were used to be sure to be on a cytokine level that is possible to modulate. In some experiments PBMC were treated with Dexamethason and Indomethacin alone and together with LPS or LTA as a control on downregulation of inflammatory cytokines. The supernatants were collected after incubation at 37° C. for 24 hours, and stored at −80° C. until cytokine measurement. Viability was measured by Alamar Blue (Biosource, DALL 1100) in all experiments and in some cases also by MTS (Promega) according to manufacturer's instruction and was in some experiments also judged by counting of the cells by a Nucleocounter.
(§2) Cytokine production in supernatants was measured by flow cytometry with a human inflammation cytometric bead array (CBA) according to manufacturer's instructions (BD) on a FACSarray flow cytometer. The following cytokines were measured: IL-8, IL-1β, IL-10, TNF, IL-12 p70, IL-6. In some experiments, cytokines were measured by ELISA kits from R&D systems (IL-10, TNF-α, IL-1β) according to the manufacturer′ instruction.
(§3) In each table, all samples were tested on the same donor. SD means standard deviation.

[5] = test system: human PBMC; test: Toxicity to human PBMC (Example 5); format: cell-based; settings: 40 μg/ml
Description: as §1
(§4) Example 5 was carried out essentially as described in Example 4.

[6] = test system: human peripheral blood mononuclear cells (PBMC); test: TNF production from LPS-treated human PBMC, CBA (Example 5); format: cell-based; settings: Table 21
Description: as §1, §2, §4, §3

[7] = test system: human peripheral blood mononuclear cells (PBMC); test: IL-1β production from LPS-treated human PBMC, CBA (Example 5, Table 23); format: cell-based
Description: as §1, §2, §4, §3

[8] = LPS 0.6 ng/ml, test compound 1 μg/ml
[9] = LPS 0.6 ng/ml, test compound 10 μg/ml
[10] = LPS 20 ng/ml, test compound 1 μg/ml
[11] = LPS 20 ng/ml, test compound 10 μg/ml

C[C@H]1C[C@@H]2[C@H]([C@@H](O)C[C@@]3(C)[C@H]2CC[C@]3(O)C(=O)COC(=O)CCC(=O)O)[C@@]2(C)C=CC(=O)C=C12 [Methylprednisolone 21-hemisuccinate]
Histology Score Distal Colon ([1]; 1 mg/kg p.o. daily for 10 days): 3.70 | Histology Score Proximal Colon ([1]; 1 mg/kg p.o. daily for 10 days): 2.80* | DAI score ([1]; Day 1): 0.00 | DAI score ([1]; Day 2): 0.10 | DAI score ([1]; Day 3): 0.00 | DAI score ([1]; Day 4): 2.60 | DAI score ([1]; Day 5): 2.50 | DAI score ([1]; Day 6): 2.60 | DAI score ([1]; Day 7): 3.10 | DAI score ([1]; Day 8): 2.50* | DAI score ([1]; Day 9): 3.80* | DAI score ([1]; Day 10): 4.90** | Colon TNF-α concentration [2]: 1833 pg/g tissue | Histology Score Distal Colon ([3]; 1 mg/kg p.o. once daily): 3.00*** | Histology Score Proximal Colon ([3]; 1 mg/kg p.o. once daily): 1.40 | DAI score ([3]; 1 mg/kg p.o. once daily, Day 1): 0.00 | DAI score ([3]; 1 mg/kg p.o. once daily, Day 2): 0.50 | DAI score ([3]; 1 mg/kg p.o. once daily, Day 3): 0.50 | DAI score ([3]; 1 mg/kg p.o. once daily, Day 4): 0.40 | DAI score ([3]; 1 mg/kg p.o. once daily, Day 5): 1.10 | DAI score ([3]; 1 mg/kg p.o. once daily, Day 6): 3.80 | DAI score ([3]; 1 mg/kg p.o. once daily, Day 7): 5.90 | DAI score ([3]; 1 mg/kg p.o. once daily, Day 8): 6.40 | DAI score ([3]; 1 mg/kg p.o. once daily, Day 9): 5.60* | DAI score ([3]; 1 mg/kg p.o. once daily, Day 10): 5.60* | Histology Score Distal Colon ([3]; 10 mg/kg p.o. once daily): 2.70*** | Histology Score Proximal Colon ([3]; 10 mg/kg p.o. once daily): 1.40 | DAI score ([3]; 10 mg/kg p.o. once daily, Day 1): 0.00 | DAI score ([3]; 10 mg/kg p.o. once daily, Day 2): 0.30 | DAI score ([3]; 10 mg/kg p.o. once daily, Day 3): 0.70 | DAI score ([3]; 10 mg/kg p.o. once daily, Day 4): 0.80 | DAI score ([3]; 10 mg/kg p.o. once daily, Day 5): 1.30 | DAI score ([3]; 10 mg/kg p.o. once daily, Day 6): 2.00 | DAI score ([3]; 10 mg/kg p.o. once daily, Day 7): 3.20** | DAI score ([3]; 10 mg/kg p.o. once daily, Day 8): 4.80** | DAI score ([3]; 10 mg/kg p.o. once daily, Day 9): 5.20* | DAI score ([3]; 10 mg/kg p.o. once daily, Day 10): 4.00***

hBD4 variant: consists of amino acids 3-39 of hBD4, SEQ ID NO:5 (ELDRICGYGTARCRKKCRSQEYRIGRCPNTYACCLRK)
IL-10 ([4]; 1 μg/ml, LPS 0.6 ng/ml): 90 pg/mL | IL-10 % of control ([4]; 1 μg/ml, LPS 0.6 ng/ml): 136% | IL-10 % of control ([4]; 1 μg/ml, LPS 20 ng/ml): 157% | IL-10 ([4]; 1 μg/ml, Medium): 0 pg/mL | IL-10 ([4]; 10 μg/ml, LPS 0.6 ng/ml): 92 pg/mL | IL-10 % of control ([4]; 10 μg/ml, LPS 0.6 ng/ml): 139% | IL-10 ([4]; 10 μg/ml, LPS 20 ng/ml): 187 pg/mL | IL-10 % of control ([4]; 10 μg/ml, LPS 20 ng/ml): 168% | IL-10 ([4]; 10 μg/ml, Medium): 0 pg/mL | Secretion of IL-10 ([4]; human PBMC with LPS, summary of Table 22): significantly and dose-dependently enhanced | toxicity to the cells [5]: toxic to the cells | TNF ([6]; 1 μg/ml, LPS 0.6 ng/ml): 468 pg/mL | TNF % of control ([6]; 1 μg/ml, LPS 0.6 ng/ml): 64% | TNF ([6]; 1 μg/ml, LPS 20 ng/ml): 778 pg/mL | TNF % of control ([6]; 1 μg/ml, LPS 20 ng/ml): 36% | TNF ([6]; 1 μg/ml, Medium): 0 pg/mL | TNF ([6]; 10 μg/ml, LPS 0.6 ng/ml): 211 pg/mL | TNF % of control ([6]; 10 μg/ml, LPS 0.6 ng/ml): 29% | TNF ([6]; 10 μg/ml, LPS 20 ng/ml): 139 pg/mL | TNF % of control ([6]; 10 μg/ml, LPS 20 ng/ml): 6% | TNF ([6]; 10 μg/ml, Medium): 0 pg/mL | IL-1β [7, 8]: 286 pg/mL | IL-1β % of control [7, 8]: 39% | IL-1β [7, 9]: 163 pg/mL | IL-1β % of control [7, 9]: 22% | IL-1β [7, 10]: 1004 pg/mL | IL-1β % of control [7, 10]: 40% | IL-1β [7, 11]: 463 pg/mL | IL-1β % of control [7, 11]: 18% | IL-1β ([7]; Medium (no LPS), test compound 1 μg/ml): 0 pg/mL | IL-1β ([7]; Medium (no LPS), test compound 10 μg/ml): 0 pg/mL
